The text below walks through data of US20140329782A1, “COMBINED THERAPEUTIC AGENT” (priority 2011, published 2014).

Series [1] deals with peripheral mononuclear cells isolated from the blood of the test subjects. The settings on record: 100 μg/ml calcitriol, cited from earlier work.
The conditions of series [2]: in vivo; cited from earlier work.
The test system of series [3] is Crohn's disease. The following applies: cited from earlier work.
For series [4], the system named is patients suffering from persistent asthma (GINA II). Nature of the series: Use and efficacy study in patients with persistent asthma (GINA II). The series is classed as in vivo, human. The method, then: • In the context of a first set of investigations, 11 patients from 32 to 65 years of age suffering from persistent asthma (GINA II) were treated with a combination therapy composed of inhaled glucocorticoid (beclomethasone, 2×200 μg/which inhalational) and inhaled long-acting beta-2 sympathomimetics (LABA, salmeterol) and also, perorally, theophylline. After one week of therapy, it was possible to achieve mild improvement of pulmonary function in 5 of the 11 test subjects. […] In two of the treated patients, it was also possible to reduce the beta-2 agonist demand by 10%. A further group based on 9 patients from 39 to 70 years of age having an identical indication, i.e., persistent asthma (GINA II), who were similarly administered with the abovementioned combination therapy composed of inhaled glucocorticoid and inhaled long-acting beta-2 sympathomimetics and also theophylline additionally received vitamin D for one week in a daily dose of 80 μg. After one week of therapy with the aforementioned dose, it was possible to achieve a mild to moderate improvement in pulmonary function in 6 of the 9 test subjects. After continued long-term therapy for 12 weeks, the persistent bronchial asthma had stabilized insofar as it was possible to reduce the inhaled glucocorticoid need by up to 60% in 7 of the 9 patients and it was possible to even completely temporarily discontinue the inhaled glucocorticoids in 1 of the 9 patients. […] In 4 of the treated patients, it was also possible to reduce the beta-2 agonist need by up to 40%.

Setting [5] is: after long-term therapy for 12 weeks.

In the case of `C=C1/C(=C\C=C2/CCC[C@]3(C)[C@@H]([C@H](C)CCCC(C)(C)O)CC[C@@H]23)C[C@@H](O)C[C@@H]1O` [calcitriol, 1,25-dihydroxyvitamin D3], in series [1], the “production of interferon gamma” value is reported as “reduces” and the “production of interleukin 10” value is “stimulates”. Besides, the “inhibition of TNF-alpha production by patient group” value in series [1] (Crohn's disease patients vs healthy) is “only in cells from patients suffering from Crohn's disease and not in cells from healthy patients”. In addition, the “production of TNF-alpha in peripheral mononuclear cells” value in series [1] (cells from patients suffering from inflammatory bowel diseases) is reported as “could be lowered”.

For `C=C1CC[C@H](O)C/C1=C/C=C1\CCC[C@]2(C)[C@@H]([C@H](C)CCCC(C)(C)O)CC[C@@H]12` [calcifediol, 25-Hydroxyvitamin D3], the half life entry in series [2] is on record as “about 2.5 weeks”.

With `Cn1cnc([N+](=O)[O-])c1Sc1ncnc2nc[nH]c12` [azathioprine], the remission in series [3] (maintaining remission) is recorded as 83%.

With `CCCC1O[C@@H]2C[C@H]3[C@@H]4CCC5=CC(=O)C=C[C@]5(C)[C@H]4[C@@H](O)C[C@]3(C)[C@]2(C(=O)CO)O1` (some centres unmarked) [budesonide], the systemic adverse effects entry in series [3] (6 mg of budesonide) is given as “frequent systemic adverse effects with cortisol suppression”.

Turning to vitamin D, in series [4] (after 12 weeks), the “patients in whom inhaled glucocorticoids could be completely temporarily discontinued” value is listed as 1 of the 9, the “patients in whom the beta-2 agonist demand could be reduced” value is 4 and the “patients in whom the inhaled glucocorticoid demand could be reduced” value is listed as 7 of the 9. Besides, in series [4] (setting [5]), the “reduction of the beta-2 agonist demand” value is listed as “up to 40%” and the “reduction of the inhaled glucocorticoid demand” value is on record as “up to 60%”. Moreover, the “test subjects with improvement of pulmonary function” value in series [4] (after one week of therapy) is 6 of the 9. Moreover, the tolerability entry in series [4] (vitamin D 80 μg daily added to the combination therapy) was “well tolerated with no adverse effects”.
